Four compounds from patent US10314920B2, “Therapeutic dendrimers” (ASTRAZENECA AB, priority 2017, dated 2019) can be followed below.

≈ marks a conversion by molar mass, not a printed value. Where “and” joins values, the source holds several entries; their conditions need not be identical. Equal values may be shown once. Entries after “also recorded” stand apart in the source; their conditions may differ.

The test system of one data set is OCI-Ly10 tumor cells. Briefly: In vivo anti-tumor activity in human DLBCL model (OCI-Ly10). As to conditions: single agent, 12.5 mg/kg twice a day oral. On the set-up: species or system mouse. The method, then:
5×10^6 OCI-Ly10 tumor cells were injected subcutaneously in the right flank of C.B.-17 SCID female mice in a volume of 0.1 mL containing 50% matrigel. Example 9 was formulated in citrate/phosphate buffer pH 5.0, diluted 1 to 10 with 5% glucose containing 1% w/v Kolliphor HS15, and dosed as a weekly intravenous (iv) administration at a volume of 5 mL/kg at a dose of 103 mg/kg (30 mg/kg API). Acalabrutinib was formulated in 0.5% hydroxypropyl methyl cellulose/0.2% Tween 80, and dosed twice a day (bid) as an oral (po) administration at a volume of 10 mL/kg at a dose of 12.5 mg/kg. Tumor volumes (measured by caliper), animal body weight, and tumor condition were recorded twice weekly for the duration of the study. The tumor volume was calculated using the formula:length (mm)×width (mm)^2×0.52. For efficacy studies, growth inhibition from the start of treatment was assessed by comparison of the differences in tumor volume between control and treated groups. Dosing began when mean tumor size reached approximately 166 mm3.

For the next data set, the system named is NCI-H1048 tumor cells. Briefly: In vivo anti-tumor activity in human small cell lung cancer tumor model (NCI-H1048). On the set-up: species or system mouse. As to conditions: 15 mg/kg daily (qd), oral. The method, then: AZD2014 was formulated in 0.5% hydroxypropyl methylcellulose/0.1% Tween 80 and dosed oral in a volume of 10 ml/kg 5×10^6 NCI-H1048 tumor cells were injected subcutaneously in the right flank of C.B.-17 SCID female mice in a volume of 0.1 mL containing 50% matrigel. Tumor volume (measured by caliper) was calculated using the formula:length (mm)×width (mm)^2×0.52. For efficacy studies, mice were randomized based on tumor volume and growth inhibition was assessed by comparison of the differences in tumor volume between control and treated groups. Dosing began when mean tumor volume reached approximately 124 mm^3.

The nature of data set [1]: Solubility of Compound A (Form B), shake flask method. It counts as physicochemical. As to conditions: thermodynamic from solid, crystalline Form B, room temperature 24 hours. As to the method: The solubility of Compound A (Form B) was determined in water and propylene glycol. […] The solutions were centrifuged using ultra centrifuge for 30 min at 40,000 rpm, supernatant were transferred to a new centrifuge tube and centrifuged for another 30 min at 40,000 rpm. The propylene glycol supernatant was then assayed using a UV-HPLC method. The water supernatant was ultra-centrifuged for a third time before assay.

The nature of data set [2]: Cardiovascular telemetry studies in the rat. To be noted: Compound A 10 mg/kg, single 30-minute intravenous infusion.
Procedure: The telemetry transmitters were placed in the abdominal muscle and the arterial blood pressure catheter was placed in the abdominal aorta. The ECG electrodes were sutured to the dorsal surface of the xiphoid process and at the anterior mediastinum.
Compound A was administered at dose levels of 0 and 10 mg/kg.
Cardiovascular parameters were recorded continuously via receivers placed beneath the home cage for at least 1 hour pre-dose and up to 72 hours post-dose. Blood samples were taken to determine the level of plasma exposure of Compound A and all dendrimers, with clinical pathology and limited tissues for target organ histopathology taken from animals dosed with the macromolecule constructs only.
The nature of data set [3]: Plasma protein binding, Equilibrium Dialysis RED device, dog plasma. The data set is classed as in vitro ADME. As to conditions: male, Beagle, pooled frozen plasma, 30 hours at 37° C., read-out: percentage unbound. The method, then: (§1) Protein binding of Compound A (prepared as DMSO stock solutions and spiked into plasma at nominal incubation concentrations of 0.1, 1, 10 and 100 μmol/L) was evaluated in pooled frozen plasma obtained from male CD-1 mice, male Han Wistar rats, female New Zealand White rabbits, male Beagle dogs and male humans in triplicate using Equilibrium Dialysis RED device methodology (Waters N J et al., Validation of a Rapid Equilibrium Dialysis Approach for the Measurement of Plasma Protein Binding, Journal of Pharmaceutical Sciences; 2008; Volume 97; Issue 10; Pages 4586-4595, 2008). Incubations were conducted over an equilibration time of 30 hours at 37° C. Sample analysis was by HPLC-MS/MS and employed an [^13C, ^2H7] Compound A internal standard using the following bioanalytical method: […]
Background: Equilibrium dialysis compares concentrations on both sides of a semipermeable membrane.

A further data set has as its system RS4;11 cells. Briefly: Efficacy of dendrimers in RS4;11 xenograft model in mice. The data set is classed as in vivo, mouse. The method, then:
5×10^6 RS4;11 cells in a total volume of 100 μl were inoculated subcutaneously at the mouse right flank. When the tumor volume reached approximately ˜350 mm^3, tumor-bearing mice were randomized into groups of 4 animals and treated with either control Vehicle (PBS) or treatment.
(§2) On specific day, for each treated group, calculate Inhibition value by formula: Inhibition %=(CG−TG)*100/(CG−1), in which “CG” means the geometric mean of rtv of the control group and “TG” means the Geometric Mean of Relative Tumor Volume (rtv) of the treated group. “CG” should use the corresponding control group of the treated group when calculated. If Inhibition >100%, then it's necessary to calculate the Regression by formula: Regression=1−TG

Data set [4] is described as follows: Plasma protein binding, Equilibrium Dialysis RED device, rat plasma. It counts as in vitro ADME. As to conditions: male, Han Wistar, pooled frozen plasma, 30 hours at 37° C., read-out: percentage unbound. As to the method:
as §1

Data set [5] relates to RS4;11 Acute Lymphoblastic Leukemia Xenograft. Briefly: Efficacy of Compound A (HP-β-CD) at different infusion length in RS4;11 xenograft model in rats. The data set is classed as in vivo, rat. As to conditions: single IV 5 hr infusion, 30% HP-β-CD. The method, then: Rag2−/− rats purchased from (SAGE) were inoculated with RS4;1 (10×10^6 cells/rat). When tumors grew to approximately […], rats were randomized to vehicle control (30% HP-β-CD) or Compound A 5 mg/kg in Vehicle 1) delivered as a single IV 30 min infusion (FIG. 6) and Vehicle control (30% HP-β-CD) or Compound A 5 mg/kg, 3 mg/kg and 1 mg/kg in Vehicle 1 delivered as a single IV 5 hr infusion (FIG. 7). The tumor sizes were measured twice a week and calculated as: Tumor Volume=(A×B^2)/2 where A and B are the tumor length and width (in mm), respectively.

A short description of data set [6]: Plasma protein binding, Equilibrium Dialysis RED device, mouse plasma. It counts as in vitro ADME. As to conditions: male, CD-1, pooled frozen plasma, 30 hours at 37° C., read-out: percentage unbound. The method, then: as §1
A short description of data set [7]: Plasma protein binding, Equilibrium Dialysis RED device, human plasma. The data set is classed as in vitro ADME. To be noted: male, pooled frozen plasma, 30 hours at 37° C., read-out: percentage unbound. As to the method: as §1
Data set [8] can be described thus: Log D, octanol/water shake-flask. The data set is classed as physicochemical. As to conditions: octanol / 10 mM sodium phosphate buffer pH 7.4. The method, then: Lipophilicity (Log D) of Compound A was measured using octanol/water shake-flask principles. The aqueous solution used was a 10 mM sodium phosphate buffer with pH adjusted to 7.4. Octanol was used as the organic partitioning layer.

The nature of data set [9]: Plasma protein binding, Equilibrium Dialysis RED device, rabbit plasma. It counts as in vitro ADME. To be noted: female, New Zealand White, pooled frozen plasma, 30 hours at 37° C., read-out: percentage unbound. As to the method:
as §1

Another data set relates to SuDHL-4 xenograft. Briefly: SuDHL-4 xenograft model in SCID mice, alone and with rituximab. The data set is classed as in vivo, mouse. The method, then:
The SuDHL-4 xenograft model was used to test the ability of Examples 6 and 9 to enhance the activity of rituximab in inhibiting tumor growth. When tumors grew to approximately 175-250 mm^3, mice were randomized to the following groups:
The tumor sizes were measured 2 times a week and calculated as: Tumor Volume=(A×B^2)/2 where A and B are the tumor length and width (in mm), respectively.
Table 17 summarizes the tumor growth inhibition (TIC) and tumor growth delay (T-C) values calculated as % Inhibition & % Regression. The calculation is based on the geometric mean of RTV in each group.
as §2

Take `CC#CC(=O)N1CCC[C@H]1c1nc(-c2ccc(C(=O)Nc3ccccn3)cc2)c2c(N)nccn12` [acalabrutinib, reference compound]: in the data set on OCI-Ly10 tumor cells, the “tumor growth inhibition (TGI)” value is approximately 58%.

The TGI is how far tumour growth fell short of that in controls. In the data set with NCI-H1048 tumor cells, `CNC(=O)c1cccc(-c2ccc3c(N4CCOC[C@@H]4C)nc(N4CCOC[C@@H]4C)nc3n2)c1` [AZD2014, vistusertib, reference compound] yielded a TGI of 84%.

For orientation: solubility means the concentration that dissolves in the medium under given conditions. One may read the logD as lipophilicity at a set pH, counting ionised and neutral species. A lower logD goes with lower lipophilicity. On to `CN(CCO)CC[C@H](CSc1ccccc1)Nc1ccc(S(=O)(=O)NC(=O)c2ccc(N3CCC([C@@H](O)c4ccccc4-c4ccc(Cl)cc4)CC3)cc2)cc1S(=O)(=O)C(F)(F)F` [Compound A, 4-(4-((R)-(4′-chlorobiphenyl-2-yl)(hydroxy)methyl)piperidin-1-yl)-N-(4-((R)-4-((2-hydroxyethyl)(methyl)amino)-1-(phenylthio)butan-2-ylamino)-3-(trifluoromethylsulfonyl)phenylsulfonyl)benzamide], for which the solubility at 24 h in data set [1] (organic solvent or mixture, propylene glycol) was 6120 µg/mL (≈ 6.47 mM); in data set [1] (water, final pH 8.7), less than 1 µg/mL. In addition, the Cardiovascular entry in data set [2] is “biphasic decrease in systolic and mean arterial blood pressure; also recorded: increases in heart rate; also recorded: decrease in QRS amplitude”. The In-life entry in [2] is “three rats were found dead and 3 found dead”. Also, the fraction unbound at 30 h, 100 μmol/L in data set [3] was less than 1e-05; in data set [4] it was less than 1e-05; in data set [6], 2.35e-05; in data set [7], 1.96e-05; in [9], 1.53e-05. Further, in the data set with RS4;11 cells (Compound A 5 mg/kg), the “% Inhibition Day (47)” value is recorded as more than 100%. In the data set with RS4;11 cells (Compound A 5 mg/kg), the “% Regression Day(47)” value was 90%. The compound also displayed a regression in the data set on RS4;11 cells (Compound A HP-β-CD 10 mg/kg IV once) of 90%. Also, the “efficacy when the infusion was prolonged” value in [5] is given as “Comparable efficacy”. Also, in data set [8], the logD is more than 3.5.

For rituximab [reference compound], in the data set on SuDHL-4 xenograft (rituximab 10 mg/kg), the “T-C” value was more than 16 days. Further, in the data set on SuDHL-4 xenograft (rituximab 10 mg/kg i.p. once a week for 5 weeks), the “% Inhibition (TIC) Day (41)” value is recorded as 75.27%.
